# Reference: ChEMBL document CHEMBL5584357, “Corannulene Amino Acid-Derived Water-Soluble Amphiphilic Buckybowls as Broad-Spectrum Membrane Targeting Antibacterial Agents” (J Med Chem, 2024)
# The source made the active and inactive calls. The rule behind the calls is not given here. Peptide text beside a SMILES is read from it.
# Experiments:
# [1] = system: Staphylococcus aureus; test: Antibacterial activity against methicillin-resistant Staphylococcus aureus ATCC 33591 incubated for 16 to 18 hrs by broth microdilution method; type: functional; conditions: time 16-18 hrs
# [2] = system: Staphylococcus aureus; test: Bactericidal activity against Staphylococcus aureus ATCC 25923 incubated for 16 hrs; type: functional
# [3] = system: Pseudomonas aeruginosa; test: Antibacterial activity against Pseudomonas aeruginosa ATCC BAA-427 incubated for 16 to 18 hrs by broth microdilution method; type: functional; conditions: time 16-18 hrs
# [4] = system: Staphylococcus aureus; test: Antibacterial activity against Staphylococcus aureus ATCC 25923 incubated for 16 to 18 hrs by broth microdilution method; type: functional; conditions: time 16-18 hrs
# [5] = system: Escherichia coli; test: Bactericidal activity against Escherichia coli ATCC 25922 incubated for 16 hrs; type: functional
# [6] = system: Acinetobacter baumannii; test: Antibacterial activity against Acinetobacter baumanni ATCC 19606 incubated for 16 to 18 hrs by broth microdilution method; type: functional; conditions: time 16-18 hrs
# [7] = system: Escherichia coli; test: Antibacterial activity against Escherichia coli ATCC 25922 incubated for 16 to 18 hrs by broth microdilution method; type: functional; conditions: time 16-18 hrs
# [8] = system: Staphylococcus aureus; test: Antibacterial activity against methicillin-resistant Staphylococcus aureus ATCC BAA-44 incubated for 16 to 18 hrs by broth microdilution method; type: functional; conditions: time 16-18 hrs
# [9] = Acute toxicity in BALB/c mouse assessed as animal survival at 50 mg/kg, ip measured for 7 days; type: organism-based; conditions: in vivo, 168 h, time 7 day
# [10] = system: Staphylococcus aureus; test: Induction of cell membrane damage in Staphylococcus aureus ATCC 25923 at 1 to 5 times MIC by SYTOX green fluorescence based analysis; type: functional, organism-based
# [11] = system: Staphylococcus aureus; test: Antimicrobial activity against methicillin-resistant Staphylococcus aureus; type: functional, organism-based
# [12] = system: Escherichia coli; test: Induction of cell membrane damage in Escherichia coli ATCC 25922 assessed as wrinkling on bacterial surface at 5 times MIC incubated for 60 mins by SEM analysis; type: functional, organism-based
# [13] = system: Staphylococcus aureus; test: Induction of cell membrane damage in Staphylococcus aureus ATCC 25923 assessed as membrane distortion at 5 times MIC incubated for 60 mins by SEM analysis; type: functional, organism-based
# [14] = system: Staphylococcus aureus; test: Antimicrobial activity against vancomycin-resistant Staphylococcus aureus; type: functional, organism-based
# [15] = system: Staphylococcus aureus; test: Bactericidal activity against Staphylococcus aureus VRS1 at 4 times MIC incubated for 6 hrs by time kill assay relative to control; type: functional
# [16] = system: Escherichia coli; test: Induction of cell membrane damage in Escherichia coli ATCC 25922 at 1 to 5 times MIC by SYTOX green fluorescence based analysis; type: functional, organism-based
# [17] = Acute toxicity in BALB/c mouse assessed as signs of toxicity at 50 mg/kg, ip measured for 7 days; type: organism-based; conditions: in vivo, 168 h, time 7 day
# [18] = system: Staphylococcus aureus; test: Bactericidal activity against Staphylococcus aureus VRS1 at 1 to 4 times MIC by time kill assay; type: functional, organism-based; conditions: time <= 24.0 hrs
# [19] = system: Staphylococcus aureus; test: Induction of cell membrane damage in Staphylococcus aureus ATCC 25923 at 5 times MIC incubated for 60 mins by PI staining based FACS analysis; type: functional, organism-based
# [20] = system: Staphylococcus aureus; test: Antibacterial activity against Staphylococcus aureus ATCC 25923 infected in BALB/c mouse assessed as bacterial load in liver at 30 mg/kg, ip measured after 18 hrs (Rvb ~ 1.75 x10^7); type: functional
# [21] = system: Staphylococcus aureus; test: Induction of cell membrane damage in Staphylococcus aureus ATCC 25923 assessed as membrane blebbing at 5 times MIC incubated for 60 mins by SEM analysis; type: functional, organism-based
# [22] = system: Staphylococcus aureus; test: Antibacterial activity against Staphylococcus aureus ATCC 25923 infected in BALB/c mouse assessed as bacterial load in lung at 30 mg/kg, ip measured after 18 hrs (Rvb ~ 5 x10^6); type: functional
# [23] = system: Escherichia coli; test: Induction of cell membrane damage in Escherichia coli ATCC 25922 at 5 times MIC incubated for 60 mins by PI staining based FACS analysis; type: functional, organism-based
# [24] = system: Erythrocyte; test: Hemolytic activity against human RBCs upto 70 uM incubated for 45 mins by absorbance based assay; type: toxicity, cell-based; conditions: 0.75 h
# [25] = system: Staphylococcus aureus; test: Antibacterial activity against Staphylococcus aureus ATCC 25923 infected in BALB/c mouse assessed as bacterial load in blood at 30 mg/kg, ip measured after 18 hrs (Rvb ~ 6 x10^6); type: functional
# [26] = Cytotoxicity against mouse 3T3-L1 cells assessed as cell viability upto 60 uM incubated for 4 hrs by MTT assay relative to control; type: toxicity, cell-based; conditions: read-out: Activity
# [27] = system: Staphylococcus aureus; test: Induction of cell membrane damage in Staphylococcus aureus ATCC 25923 assessed as bacterial content leakage at 5 times MIC incubated for 60 mins by SEM analysis; type: functional, organism-based
# [28] = system: Staphylococcus aureus; test: Antibacterial activity against Staphylococcus aureus ATCC 25923 infected in BALB/c mouse assessed as bacterial load in spleen at 30 mg/kg, ip measured after 18 hrs (Rvb ~ 1 x10^7); type: functional
# [29] = system: Escherichia coli; test: Induction of cell membrane damage in Escherichia coli ATCC 25922 assessed as membrane blebbing at 5 times MIC incubated for 60 mins by SEM analysis; type: functional, organism-based
# [30] = Toxicity in BALB/c mouse assessed as animal death at 15 to 30 mg/kg, ip measured for 18 hrs; type: organism-based; conditions: in vivo, dose 15-30 mg/kg
# [31] = Hemolytic activity against human RBCs upto 100 uM incubated for 45 mins by absorbance based assay; type: toxicity, cell-based, Erythrocyte; conditions: red blood cells (erythrocytes), read-out: Activity
# [32] = system: Staphylococcus aureus; test: Bactericidal activity against Staphylococcus aureus VRS1 at 4 times MIC incubated for 24 hrs by time kill assay relative to control; type: functional
# [33] = system: Staphylococcus aureus; test: Induction of cell membrane damage in Staphylococcus aureus ATCC 25923 at 5 times MIC incubated for 60 mins by SEM analysis; type: functional, organism-based
SMILES,MIC [1],MBC [2],MIC [3],MIC [4],MBC [5],MIC [6],MIC [7],MIC [8],Activity [10],Activity [12],Activity [13],Activity [16],Activity [19],Activity [21],Activity [23],"viability at 4 h, up to 60 µM [26]",Activity [27],Activity [29],other results
O=C(O)c1cn(C2CC2)c2cc(N3CCNCC3)c(F)cc2c1=O [CIPROFLOXACIN],1.56 µM,0.39 µM,1.56 µM,0.39 µM,0.39 µM,0.39 µM,0.39 µM,0.39 µM,–,–,–,–,–,–,–,–,–,–,–
COC(=O)[C@H](Cc1cc2ccc3ccc4ccc5ccc1c1c5c4c3c21)NC(=O)[C@@H](N)CCCCN.Cl.Cl,25 µM,50 µM,200 µM,25 µM,50 µM,200 µM,50 µM,12.5 µM,Active,Active,Active,inactive,Active,Active,Active,71%,Active,Active,Activity [9]: Non-Toxic; Activity [11]: Active; Activity [14]: Active; Activity [15]: 100%; Activity [17]: Non-Toxic; Activity [18]: Dose-Dependent Effect; Activity [20]: ~1.2 10^6CFU/ml; Activity [22]: ~4.5 10^4CFU/ml; Activity [24]: Non-Toxic; Activity [25]: ~7 10^4CFU/ml; Activity [28]: ~6.5 10^5CFU/ml; Activity [30]: Non-Toxic
COC(=O)[C@H](CCCNC(=N)NS(=O)(=O)c1ccc(C)cc1)NC(=O)[C@@H](N)Cc1cc2ccc3ccc4ccc5ccc1c1c5c4c3c21,> 400 µM,–,> 400 µM,> 400 µM,–,> 400 µM,> 400 µM,> 400 µM,–,–,–,–,Active,–,Active,–,–,–,–
COC(=O)[C@H](CCCc1cc2ccc3ccc4ccc5ccc1c1c5c4c3c21)NC(=O)[C@@H](N)CCCCN,12.5 µM,12.5 µM,25 µM,12.5 µM,25 µM,25 µM,25 µM,12.5 µM,Active,Active,Active,inactive,Active,Active,Active,41%,Active,Active,–
COC(=O)[C@H](Cc1cc2ccc3ccc4ccc5ccc1c1c5c4c3c21)NC(=O)CNC(=O)[C@@H](N)CCCCN,12.5 µM,50 µM,50 µM,12.5 µM,50 µM,100 µM,50 µM,12.5 µM,Active,–,–,inactive,Active,–,Active,47%,–,–,"hemolysis at 0.75 h, up to 100 µM [31]: ~3%"
CN(C)[C@@H]1C(O)=C(C(N)=O)C(=O)[C@@]2(O)C(O)=C3C(=O)c4c(O)cccc4[C@@](C)(O)[C@H]3C[C@@H]12 [TETRACYCLINE],0.78 µM,0.78 µM,1.56 µM,0.39 µM,0.78 µM,0.39 µM,0.78 µM,0.78 µM,–,–,–,–,–,–,–,–,–,–,–
CCCCCCCCCC(=O)N[C@@H](Cc1c[nH]c2ccccc12)C(=O)N[C@H](CC(N)=O)C(=O)N[C@@H](CC(=O)O)C(=O)N[C@@H]1C(=O)NCC(=O)N[C@@H](CCCN)C(=O)N[C@@H](CC(=O)O)C(=O)N[C@H](C)C(=O)N[C@@H](CC(=O)O)C(=O)NCC(=O)N[C@H](CO)C(=O)N[C@@H]([C@H](C)CC(=O)O)C(=O)N[C@@H](CC(=O)c2ccccc2N)C(=O)O[C@@H]1C,–,–,–,–,–,–,–,–,–,–,–,–,–,–,–,–,–,–,Activity [32]: 100%
COC(=O)[C@H](Cc1cc2ccc3ccc4ccc5ccc1c1c5c4c3c21)NC(=O)[C@H](N)CCCCN,25 µM,50 µM,50 µM,25 µM,200 µM,50 µM,100 µM,25 µM,Active,Active,Active,inactive,Active,Active,Active,3%,Active,Active,–
COC(=O)[C@H](CCCc1cc2ccc3ccc4ccc5ccc1c1c5c4c3c21)NC(=O)CNC(=O)[C@@H](N)CCCCN,12.5 µM,12.5 µM,50 µM,12.5 µM,50 µM,50 µM,50 µM,12.5 µM,Active,–,–,inactive,Active,–,Active,62%,–,–,"hemolysis at 0.75 h, up to 100 µM [31]: ~5%"
CC[C@H](C)[C@H](NC(=O)[C@H](CCCNC(=N)N)NC(=O)CNC(=O)[C@H](CC(C)C)NC(=O)[C@H](Cc1ccccc1)NC(=O)[C@H](CCCCN)NC(=O)[C@H](CO)NC(=O)[C@H](Cc1ccccc1)NC(=O)[C@H](Cc1c[nH]c2ccccc12)NC(=O)[C@H](CCC(N)=O)NC(=O)[C@@H](NC(=O)[C@@H](N)Cc1ccccc1)C(C)C)C(=O)N[C@@H](CC(C)C)C(N)=O (H-FVQWFSKFLGRIL-NH2),–,–,–,–,–,–,–,–,–,–,–,–,–,–,–,–,–,–,Activity [33]: Active
